From patent publication US8765433B2, “Alcohol dehydrogenases (ADH) useful for fermentive production of lower alkyl alcohols” (priority 2009, dated 2014)

Columns and labels:
Format in all cases: biochemical
[1] = molecular target: T1, Clostridium beijerinckii ADH (CbADH), SEQ ID NO: 29 (Clostridium beijerinckii, UniProt P25984); assay: isobutyraldehyde reduction kinetics (A340, initial rates); conditions: relative to SadB
T1 construct: hexa-histidine (pBADHisA) (N); made in house; host or cells: E. coli (BL21-CodonPlus or a proprietary E. coli strain)
T1 sequence (P25984 1-351): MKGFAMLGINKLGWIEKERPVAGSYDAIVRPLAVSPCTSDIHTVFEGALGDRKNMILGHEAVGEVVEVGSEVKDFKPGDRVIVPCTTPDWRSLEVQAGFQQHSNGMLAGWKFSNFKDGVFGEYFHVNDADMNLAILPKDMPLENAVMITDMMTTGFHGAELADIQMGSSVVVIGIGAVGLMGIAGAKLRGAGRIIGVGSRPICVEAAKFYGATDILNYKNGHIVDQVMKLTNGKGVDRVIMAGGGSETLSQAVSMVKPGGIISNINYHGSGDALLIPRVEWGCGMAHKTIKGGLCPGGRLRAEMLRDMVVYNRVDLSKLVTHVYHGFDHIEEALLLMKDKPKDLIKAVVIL
From the text: (§1) This example describes preparation of ADH-gene constructs for over-expression/purification and measurement of enzyme activities using a time-course assay. Horse-liver ADH (HLADH; A-6128) was purchased from Sigma. Achromobacter xylosoxidans SadB (SadB), Saccharomyces cerevisiae ADH6 (ScADH6) and ADH7 (ScADH7), Entamoeba histolytica ADH1 (EhADH1), Bos Taurus Aldehyde Reductase (BtARD), Beijerinckia indica subsp. Indica ATCC 9039 (BiADH), Clostridium beijerinckii ADH (CbADH), Rana perezi ADH8 (RpADH8), Rattus norvegicus ADH1 (RnADH1), Thermus sp. ATN1 ADH (TADH), Phenylobacterium zucineum HLK1 ADH (PzADH), Methylocella silvestris BL2 ADH (MsADH), Acinetobacter baumannii AYE ADH (AbADH), Geobacillus sp. WCH70 ADH (GbADH), Vanderwaltozyma polyspora DSM 70294 ADH (VpADH), Mucor circinelloides ADH (McADH), and Rhodococcus erythropolis PR4ADH (ReADH) were the candidates for which subclones were prepared for protein expression and purification.
(§2) As a routine practice, the crude extracts and purified proteins were assayed for butanol oxidation activity, in order to ensure that the recombinant proteins were active throughout the purification process. […] Alcohol oxidation activities were carried out in 50 mM sodium phosphate buffer at pH 8.8 and aldehyde reduction reactions were assayed in 190 mM potassium phosphate buffer at pH 7.0. Depending on the nature of reaction being carried out, the enzyme and cofactor stocks were diluted in the reaction buffers at the respective pHs. Either buffer or cell extract prepared from the proprietary E. coli strain (with no ADH plasmid) was used as the negative control for assays with purified protein and cell-free extracts, respectively.
(§3) Kinetic constants of the ADH enzymes were calculated and compared to identify those candidate ADH enzymes with the most desirable properties for the conversion of isobutyraldehyde to isobutanol in the last step of the engineered pathway for isobutanol production. The assays for determining the kinetic constants were carried out using initial rates from the assays described above. […] The concentration of a given enzyme was such that it was conducive for the measurement of initial velocities over a 1-min time course. For each enzyme, Michaelis-Menten plots were generated with a broad range of substrate concentrations. Rough estimates of KM were obtained, based on which the assays were redesigned so as to use substrate concentrations in the range 0.5 to 10 times the KM value, to be able to obtain the appropriate kinetic constants. […] Reactions with isobutanol substrate were performed at 30° C. in 50 mM Sodium phosphate buffer, pH 8.8, containing 7.5 mM NAD. The Enzyme kinetics module (Version 1.3) of SigmaPlot 11 (Systat Software, Inc.) was used to fit data to Michaelis-Menten equations and calculate the kinetic constants. The kcat/KM is derived from the individual numbers of kcat and KM and not an experimentally determined value.
(§4) For those enzymes marked with an asterisk in Table 7, at least 3 assays were performed with separate preparations of the enzyme. All other numbers are values from either one assay or are averages from 2 assays performed with the same enzyme sample.

[2] = molecular target: T2, Rattus norvegicus ADH1 (RnADH1), SEQ ID NO: 32 (Rattus norvegicus, UniProt P06757); assay: as above
T2 construct: hexa-histidine (pBADHisA) (N); made in house; host or cells: E. coli (BL21-CodonPlus or a proprietary E. coli strain)
From the text: as §1, §2, §3, §4

[3] = molecular target: T3, Thermus sp. ATN1 ADH (TADH), SEQ ID NO: 33 (Thermus sp. ATN1, UniProt B2ZRE3); assay: as above; conditions: relative to SadB
T3 sequence (B2ZRE3 1-347): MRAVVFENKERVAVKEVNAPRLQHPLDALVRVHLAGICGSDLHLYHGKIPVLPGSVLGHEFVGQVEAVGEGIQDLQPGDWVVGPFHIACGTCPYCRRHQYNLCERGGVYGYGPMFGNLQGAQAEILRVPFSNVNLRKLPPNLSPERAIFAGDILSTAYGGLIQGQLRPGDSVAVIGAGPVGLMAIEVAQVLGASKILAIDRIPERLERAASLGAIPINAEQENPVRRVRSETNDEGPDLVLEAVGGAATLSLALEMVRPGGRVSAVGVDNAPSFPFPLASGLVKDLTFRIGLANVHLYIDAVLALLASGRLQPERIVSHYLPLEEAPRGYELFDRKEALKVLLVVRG
From the text: as §1, §2, §3, §4

[4] = molecular target: T4, Beijerinckia indica subsp. Indica ATCC 9039 ADH (BiADH), SEQ ID NO: 31 (Beijerinckia indica, UniProt B2IGW3)
T4 sequence (B2IGW3 1-347): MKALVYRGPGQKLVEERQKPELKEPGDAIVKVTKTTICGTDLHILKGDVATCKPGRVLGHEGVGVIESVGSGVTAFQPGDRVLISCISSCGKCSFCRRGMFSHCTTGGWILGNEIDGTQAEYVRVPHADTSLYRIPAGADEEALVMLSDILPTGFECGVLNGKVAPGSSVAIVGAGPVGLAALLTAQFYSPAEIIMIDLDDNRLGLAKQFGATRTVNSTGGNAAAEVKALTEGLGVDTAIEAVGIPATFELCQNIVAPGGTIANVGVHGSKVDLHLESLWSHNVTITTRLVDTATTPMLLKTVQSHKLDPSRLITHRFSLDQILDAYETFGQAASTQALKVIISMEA
From the text: as §1, §2, §3, §4

T2 sequence (P06757 whole entry): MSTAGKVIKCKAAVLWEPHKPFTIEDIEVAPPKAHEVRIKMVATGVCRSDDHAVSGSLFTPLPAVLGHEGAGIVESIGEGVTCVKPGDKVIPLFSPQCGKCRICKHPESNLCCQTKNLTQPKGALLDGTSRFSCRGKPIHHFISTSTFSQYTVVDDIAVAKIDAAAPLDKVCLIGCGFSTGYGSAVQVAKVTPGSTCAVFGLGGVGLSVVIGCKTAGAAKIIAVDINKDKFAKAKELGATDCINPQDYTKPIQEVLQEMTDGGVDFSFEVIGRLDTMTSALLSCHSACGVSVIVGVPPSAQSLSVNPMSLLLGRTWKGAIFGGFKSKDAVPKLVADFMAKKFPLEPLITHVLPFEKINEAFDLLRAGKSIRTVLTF

Row | SMILES | KM as a percentage of the same parameter for SadB [1] | kcat as a percentage of the same parameter for SadB [1] | kcat/KM as a percentage of the same parameter for SadB [1] | Km ([2]; 30° C., pH 7.0, NADH specific, low KM precludes accurate determination, read-out: KM (Isobutanal)) | kcat ([2]; isobutyraldehyde reduction, 30° C., pH 7.0, NADH specific) | KM as a percentage of the same parameter for SadB ([2]; relative to SadB) | kcat as a percentage of the same parameter for SadB ([2]; relative to SadB) | kcat/KM as a percentage of the same parameter for SadB ([2]; relative to SadB) | KM as a percentage of the same parameter for SadB [3] | kcat as a percentage of the same parameter for SadB [3] | kcat/KM as a percentage of the same parameter for SadB [3] | catalytic efficiency for isobutyraldehyde reduction, BiADH relative to SadB ([4]; compared with SadB) | KM as a percentage of the same parameter for SadB ([4]; relative to SadB) | kcat as a percentage of the same parameter for SadB ([4]; relative to SadB) | kcat/KM as a percentage of the same parameter for SadB ([4]; relative to SadB) | KI as a percentage of the same parameter for SadB ([4]; relative to SadB)
1 | CC(C)C=O [isobutyraldehyde] | 150% | 113% | 81% | ≤ 3 µM | ~5 s⁻¹ | <1% | 5% | 1588% | 130% | 14% | 10% | ~12 times | 20% | 260% | 1192% | –
2 | CC(C)CO [isobutanol, 2-methylpropan-1-ol] | – | – | – | – | – | – | – | – | – | – | – | – | – | – | – | 20%
